Laboratory results from ChEMBL document CHEMBL2150859, “Design, synthesis, and evaluation of 3,5-disubstituted 7-azaindoles as Trk inhibitors with anticancer and antiangiogenic activities” (J Med Chem, 2012).

Assays:
[1] = target: T1, High affinity nerve growth factor receptor (Homo sapiens, UniProt P04629); experiment: Inhibition of TRKA assessed as [gamma33P]ATP incorporation into substrate
Target sequence in this assay (P04629 whole entry): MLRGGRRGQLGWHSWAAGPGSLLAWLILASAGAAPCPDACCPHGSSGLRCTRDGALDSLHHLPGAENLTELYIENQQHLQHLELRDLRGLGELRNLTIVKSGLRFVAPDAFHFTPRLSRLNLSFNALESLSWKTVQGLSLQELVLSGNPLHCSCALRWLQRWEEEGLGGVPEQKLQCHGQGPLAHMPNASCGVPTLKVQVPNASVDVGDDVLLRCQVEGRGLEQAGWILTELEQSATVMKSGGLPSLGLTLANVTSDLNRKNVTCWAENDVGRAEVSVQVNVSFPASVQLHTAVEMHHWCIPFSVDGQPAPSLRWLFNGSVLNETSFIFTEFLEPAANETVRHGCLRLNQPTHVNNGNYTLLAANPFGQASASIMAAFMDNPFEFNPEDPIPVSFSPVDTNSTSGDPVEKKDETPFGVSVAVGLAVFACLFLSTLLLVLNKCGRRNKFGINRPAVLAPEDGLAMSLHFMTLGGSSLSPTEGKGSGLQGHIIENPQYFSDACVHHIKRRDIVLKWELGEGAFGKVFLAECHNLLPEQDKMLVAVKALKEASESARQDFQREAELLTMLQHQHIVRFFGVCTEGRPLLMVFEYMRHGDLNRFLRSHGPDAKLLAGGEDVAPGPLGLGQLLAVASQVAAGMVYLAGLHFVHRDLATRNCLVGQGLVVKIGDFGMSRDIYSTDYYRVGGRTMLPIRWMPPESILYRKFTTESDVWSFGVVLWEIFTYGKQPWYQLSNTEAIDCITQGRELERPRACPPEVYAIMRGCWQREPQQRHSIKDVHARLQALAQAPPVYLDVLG

[2] = tested on: MCF7; experiment: cells; settings: Homo sapiens, MCF7, 48 h
Description: Cytotoxicity against human MCF7 cells after 48 hrs by MTT assay

[3] = target: T1, High affinity nerve growth factor receptor; experiment: Binding affinity to TRKA by high throughput assay
Target sequence in this assay (P04629 whole entry): as above

[4] = target: T2, Phosphatidylinositol 4,5-bisphosphate 3-kinase catalytic subunit alpha isoform (Homo sapiens, UniProt P42336); experiment: Binding affinity to PI3Kalpha at 10 uM by high throughput binding assay relative to control
T2 sequence (P42336 whole entry, canonical isoform): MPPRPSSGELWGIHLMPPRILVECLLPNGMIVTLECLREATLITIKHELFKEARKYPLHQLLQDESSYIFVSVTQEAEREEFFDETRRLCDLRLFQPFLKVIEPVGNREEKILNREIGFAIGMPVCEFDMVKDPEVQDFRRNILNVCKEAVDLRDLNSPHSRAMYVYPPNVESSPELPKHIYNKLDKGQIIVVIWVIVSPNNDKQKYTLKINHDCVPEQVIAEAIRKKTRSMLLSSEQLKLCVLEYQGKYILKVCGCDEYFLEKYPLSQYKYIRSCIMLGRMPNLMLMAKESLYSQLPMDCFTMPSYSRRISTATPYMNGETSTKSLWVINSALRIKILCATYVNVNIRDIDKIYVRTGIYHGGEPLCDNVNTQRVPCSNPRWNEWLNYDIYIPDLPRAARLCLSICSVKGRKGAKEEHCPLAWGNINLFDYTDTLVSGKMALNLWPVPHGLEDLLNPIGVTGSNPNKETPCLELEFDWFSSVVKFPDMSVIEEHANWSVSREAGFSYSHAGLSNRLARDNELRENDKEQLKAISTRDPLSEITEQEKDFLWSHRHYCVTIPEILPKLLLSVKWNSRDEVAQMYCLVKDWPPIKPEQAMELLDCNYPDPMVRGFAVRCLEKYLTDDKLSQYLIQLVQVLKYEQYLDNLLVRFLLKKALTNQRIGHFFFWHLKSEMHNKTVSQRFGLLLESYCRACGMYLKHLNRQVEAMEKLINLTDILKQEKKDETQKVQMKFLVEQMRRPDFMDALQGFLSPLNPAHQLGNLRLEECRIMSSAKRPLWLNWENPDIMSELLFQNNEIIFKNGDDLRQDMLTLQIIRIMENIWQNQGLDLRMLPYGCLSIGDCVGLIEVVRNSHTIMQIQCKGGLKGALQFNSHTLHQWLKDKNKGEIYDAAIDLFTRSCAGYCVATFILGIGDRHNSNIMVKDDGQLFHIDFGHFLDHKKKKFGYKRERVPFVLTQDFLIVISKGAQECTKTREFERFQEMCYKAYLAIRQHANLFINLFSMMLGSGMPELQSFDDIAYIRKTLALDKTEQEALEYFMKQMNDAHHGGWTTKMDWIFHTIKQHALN

[5] = target: T2, Phosphatidylinositol 4,5-bisphosphate 3-kinase catalytic subunit alpha isoform; experiment: Binding affinity to PI3Kalpha by high throughput assay
[6] = Selectivity ratio of Kd for PI3Kalpha to Kd for TRKA
[7] = target: T1, High affinity nerve growth factor receptor; experiment: Binding affinity to TRKA at 10 uM by high throughput binding assay relative to control
Target sequence in this assay (P04629 33-796 limits assumed): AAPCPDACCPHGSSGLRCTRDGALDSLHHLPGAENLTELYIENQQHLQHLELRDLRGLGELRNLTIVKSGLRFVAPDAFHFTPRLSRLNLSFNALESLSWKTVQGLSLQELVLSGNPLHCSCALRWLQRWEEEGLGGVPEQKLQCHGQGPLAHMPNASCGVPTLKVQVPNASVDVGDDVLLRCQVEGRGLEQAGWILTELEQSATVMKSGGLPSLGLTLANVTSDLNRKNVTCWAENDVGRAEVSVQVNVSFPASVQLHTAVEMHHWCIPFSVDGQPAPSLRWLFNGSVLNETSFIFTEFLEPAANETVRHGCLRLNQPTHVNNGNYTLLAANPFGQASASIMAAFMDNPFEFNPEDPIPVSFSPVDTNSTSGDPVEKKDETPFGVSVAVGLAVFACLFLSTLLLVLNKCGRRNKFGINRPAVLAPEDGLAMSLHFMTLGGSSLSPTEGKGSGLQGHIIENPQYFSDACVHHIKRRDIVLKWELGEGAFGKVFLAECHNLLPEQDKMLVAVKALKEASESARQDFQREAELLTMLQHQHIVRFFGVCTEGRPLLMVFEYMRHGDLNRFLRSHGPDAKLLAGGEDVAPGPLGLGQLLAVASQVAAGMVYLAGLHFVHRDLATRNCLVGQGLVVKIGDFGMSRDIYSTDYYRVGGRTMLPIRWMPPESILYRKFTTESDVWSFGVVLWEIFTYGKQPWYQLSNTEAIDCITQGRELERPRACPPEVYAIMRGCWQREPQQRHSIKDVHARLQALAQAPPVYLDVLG

| Structure (SMILES) | IC50 [1] [µM] | IC50 [2] [µM] | Kd [3] [µM] | Activity [4] [%] | Kd [5] [µM] | Selectivity ratio [6] | Activity [7] [%] |
| --- | --- | --- | --- | --- | --- | --- | --- |
| Nc1cc(C(=O)N2CCOCC2)cc(-c2cnc3[nH]cc(-c4ccncc4)c3c2)c1 | 0.0647 | > 30 | – | – | – | – | – |
| COc1ccc(-c2c[nH]c3ncc(-c4cccc(NS(=O)(=O)c5ccccc5)c4)cc23)cc1OC | – | – | 0.091 | 31 | 2.3 | 25 | 0.2 |
| COc1cccc(-c2cnc3[nH]cc(-c4ccncc4)c3c2)c1 | 0.0227 | 11.7 | – | – | – | – | – |
| Nc1cc(-c2cnc3[nH]cc(-c4ccncc4)c3c2)ccc1C(=O)N1CCOCC1 | 0.0886 | 8.5 | – | – | – | – | – |
| Nc1cccc(-c2cnc3[nH]cc(-c4ccccc4)c3c2)c1 | – | – | 0.088 | 100 | – | – | 0.3 |
| N#Cc1cccc(-c2c[nH]c3ncc(-c4cccc(N)c4)cc23)c1 | – | – | 0.27 | 98 | – | – | 2.6 |
| Nc1cc(OCCN2CCOCC2)cc(-c2cnc3[nH]cc(-c4ccncc4)c3c2)c1 | 0.00836 | 11.2 | – | – | – | – | – |
| COc1ccc(-c2c[nH]c3ncc(-c4cccc(C#N)c4)cc23)cc1OC | – | – | – | 69 | – | – | 26 |
| CS(=O)(=O)Nc1cccc(-c2c[nH]c3ncc(-c4cncc(NS(=O)(=O)c5ccccc5)c4)cc23)c1 | – | – | – | 0.9 | – | – | 9.6 |
| Nc1cccc(-c2cnc3[nH]cc(-c4cccnc4)c3c2)c1 | – | – | 0.075 | 42 | 4.5 | 60 | 0.2 |
| CN(C)CCOc1cc(N)cc(-c2cnc3[nH]cc(-c4ccncc4)c3c2)c1 | 0.0136 | 11.2 | – | – | – | – | – |
| COc1ccc(N)cc1-c1cnc2[nH]cc(-c3ccncc3)c2c1 | 0.11 | 5.4 | – | – | – | – | – |
| Nc1cncc(-c2cnc3[nH]cc(-c4ccncc4)c3c2)c1 | 0.0696 | 5.1 | – | – | – | – | – |
| CN(C)CCOc1ccc(-c2cnc3[nH]cc(-c4ccncc4)c3c2)cc1N | 0.047 | 3.1 | – | – | – | – | – |
| CN(C)c1cccc(-c2cnc3[nH]cc(-c4ccncc4)c3c2)c1 | 0.0265 | 12.1 | – | – | – | – | – |
| COc1ccc(-c2c[nH]c3ncc(-c4cncc(N)c4)cc23)cc1OC | – | – | 0.058 | 12 | 0.96 | 17 | 0.05 |
| COc1ccc(-c2c[nH]c3ncc(-c4cccc(N)c4)cc23)cc1OC | – | – | 0.125 | 59 | – | – | 1.3 |
| N#Cc1cccc(-c2cnc3[nH]cc(-c4cccc(N)c4)c3c2)c1 | – | – | 0.11 | 48 | 12 | 109 | 0.65 |

Next, values leading:

| IC50 [1] [µM] | IC50 [2] [µM] | Kd [3] [µM] | Activity [4] [%] | Kd [5] [µM] | Selectivity ratio [6] | Activity [7] [%] | Structure (SMILES) |
| --- | --- | --- | --- | --- | --- | --- | --- |
| 0.0332 | 8.7 | – | – | – | – | – | COc1ccc(-c2cnc3[nH]cc(-c4ccncc4)c3c2)cc1N |
| 0.025 | 7.7 | – | – | – | – | – | Nc1ccc(-c2cnc3[nH]cc(-c4ccncc4)c3c2)cc1 |
| 0.0222 | 2.8 | – | – | – | – | – | Cc1ccc(-c2cnc3[nH]cc(-c4ccncc4)c3c2)cc1N |
| 0.00297 | 6.6 | – | – | – | – | – | Nc1cc(NS(=O)(=O)c2ccc(F)cc2F)cc(-c2cnc3[nH]cc(-c4ccncc4)c3c2)c1 |
| 0.0427 | 2.3 | 0.064 | 31 | 2.9 | – | 0 | Nc1cccc(-c2cnc3[nH]cc(-c4ccncc4)c3c2)c1 |
| 0.0186 | 8.5 | – | – | – | – | – | COc1cc(N)cc(-c2cnc3[nH]cc(-c4ccncc4)c3c2)c1 |
| 0.0314 | 4.5 | – | – | – | – | – | CNc1cccc(-c2cnc3[nH]cc(-c4ccncc4)c3c2)c1 |
| – | – | 0.145 | 0.05 | 0.048 | 0.33 | 0.8 | COc1ccc(-c2c[nH]c3ncc(-c4cncc(NS(=O)(=O)c5ccccc5)c4)cc23)cc1OC |
| 0.0094 | 8.8 | – | – | – | – | – | Nc1cc(NS(=O)(=O)c2ccccc2)cc(-c2cnc3[nH]cc(-c4ccncc4)c3c2)c1 |
| 0.0537 | 12 | – | – | – | – | – | Nc1cc(-c2cnc3[nH]cc(-c4ccncc4)c3c2)ccc1Cl |
| 0.0338 | > 30 | – | – | – | – | – | CS(=O)(=O)Nc1cc(N)cc(-c2cnc3[nH]cc(-c4ccncc4)c3c2)c1 |
| 3.17 | – | – | – | – | – | – | Nc1ccc(NS(=O)(=O)c2ccccc2)c(-c2cnc3[nH]cc(-c4ccncc4)c3c2)c1 |
| 0.00541 | > 30 | – | – | – | – | – | CC(=O)Nc1cc(N)cc(-c2cnc3[nH]cc(-c4ccncc4)c3c2)c1 |
| 0.0343 | 9.1 | – | – | – | – | – | CC(=O)Nc1cccc(-c2cnc3[nH]cc(-c4ccncc4)c3c2)c1 |
| 0.00462 | 10.4 | – | – | – | – | – | Cc1ccc(S(=O)(=O)Nc2cc(N)cc(-c3cnc4[nH]cc(-c5ccncc5)c4c3)c2)cc1 |
